In US9604961B2, “Histone demethylase inhibitors” (Celgene Quanticel Research, Inc., priority 2012, dated 2017):

Tests used:
Type in all cases: biochemical
JMJD2C = JMJD2C (Homo sapiens (Human), UniProt Q9H3R0); assay: JMJD2C in vitro enzyme inhibition assay (TR-FRET)
Description: Baculovirus expressed JMJD2C (GenBank Accession #BC143571, AA 2-372) was purchased from BPS Bioscience (Cat#50105).
The ability of test compounds to inhibit the activity of JMJD2C was determined in 384-well plate format under the following reaction conditions: 0.3 nM JMJD2C, 300 nM H3K9me3-biotin labeled peptide (Anaspec cat #64360), 2 μM alpha-ketoglutaric acid in assay buffer of 50 mM HEPES, pH7.3, 0.005% Brij35, 0.5 mM TCEP, 0.2 mg/ml BSA, 50 μM sodium L-ascorbate, and 2 μM ammonium iron(II) sulfate. Reaction product was determined quantitatively by TR-FRET after the addition of detection reagent Phycolink Streptavidin-allophycocyanin (Prozyme) and Europium-anti-di-methylated histone H3 lysine 9 (H3K9me2) antibody (PerkinElmer) in the presence of 5 mM EDTA in LANCE detection buffer (PerkinElmer) at a final concentration of 50 nM and 1 nM, respectively.
The assay reaction was initiated by the following: 2 μl of the mixture of 900 nM H3K9me3-biotin labeled peptide and 6 μM alpha-ketoglutaric acid with 2 μl of 11-point serial diluted inhibitor in 3% DMSO were added to each well of the plate, followed by the addition of 2 μl of 0.9 nM JMJD2C to initiate the reaction. The reaction mixture was incubated at room temperature for 30 minutes, and terminated by the addition of 6 μl of 5 mM EDTA in LANCE detection buffer containing 100 nM Phycolink Streptavidin-allophycocyanin and 2 nM Europium-anti-H3K9me2 antibody. Plates were read by EnVisionMultilabel Reader in TR-FRET mode (excitation at 320 nm, emission at 615 nm and 665 nm) after 1 hour incubation at room temperature. A ratio was calculated (665/615) for each well and fitted to determine inhibition constant (IC50).

Jarid1A = Jarid1A (Homo sapiens (Human), UniProt P29375); assay: Jarid1A in vitro enzyme inhibition assay (TR-FRET)
Description: The enzymatic assay of Jarid1A activity is based upon Time Resolved-Fluorescence Resonance Energy Transfer (TR-FRET) detection.

Jarid1B = Jarid1B (Homo sapiens (Human), UniProt Q9UGL1); assay: Jarid1B in vitro enzyme inhibition assay (TR-FRET)
Chain of Jarid1B (Q9UGL1 2-751): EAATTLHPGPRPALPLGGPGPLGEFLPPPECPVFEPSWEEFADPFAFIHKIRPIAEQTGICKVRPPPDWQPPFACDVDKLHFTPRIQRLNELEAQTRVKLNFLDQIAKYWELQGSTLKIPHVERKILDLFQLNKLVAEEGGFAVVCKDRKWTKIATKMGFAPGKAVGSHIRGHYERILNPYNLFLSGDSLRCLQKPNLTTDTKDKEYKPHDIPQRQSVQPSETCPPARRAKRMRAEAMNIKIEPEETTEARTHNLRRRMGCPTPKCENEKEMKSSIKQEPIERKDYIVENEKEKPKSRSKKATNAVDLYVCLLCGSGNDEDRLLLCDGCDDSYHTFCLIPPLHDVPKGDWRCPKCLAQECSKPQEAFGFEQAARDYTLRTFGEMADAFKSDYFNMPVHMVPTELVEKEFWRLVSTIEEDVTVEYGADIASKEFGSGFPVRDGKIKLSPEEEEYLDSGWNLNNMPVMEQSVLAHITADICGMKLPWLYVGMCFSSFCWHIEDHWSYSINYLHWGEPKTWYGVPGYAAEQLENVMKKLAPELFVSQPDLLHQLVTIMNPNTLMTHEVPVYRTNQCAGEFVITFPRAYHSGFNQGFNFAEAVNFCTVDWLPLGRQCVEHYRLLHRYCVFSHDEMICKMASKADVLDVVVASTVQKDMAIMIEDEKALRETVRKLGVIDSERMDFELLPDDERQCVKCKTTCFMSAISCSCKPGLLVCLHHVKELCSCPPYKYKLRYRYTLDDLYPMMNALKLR
Description: This assay determines the ability of a test compound to inhibit Jarid1A, Jarid1B, JMJD2C, and JMJD2A demethylase activity.
The ability of test compounds to inhibit the activity of Jarid1B was determined in 384-well plate format under the following reaction conditions: 0.8 nM Jarid1B, 300 nM H3K4me3-biotin labeled peptide (Anaspec cat #64357), 2 μM alpha-ketoglutaric acid in assay buffer of 50 mM HEPES, pH7.3, 0.005% Brij35, 0.5 mM TCEP, 0.2 mg/ml BSA, 50 μM sodium L-ascorbate, and 2 μM ammonium iron(II) sulfate. Reaction product was determined quantitatively by TR-FRET after the addition of detection reagent Phycolink Streptavidin-allophycocyanin (Prozyme) and Europium-anti-mono- or di-methylated histone H3 lysine 4 (H3K4me1-2) antibody (PerkinElmer) in the presence of 5 mM EDTA in LANCE detection buffer (PerkinElmer) at a final concentration of 25 nM and 1 nM, respectively.
The assay reaction was initiated by the following: 2 μl of the mixture of 900 nM H3K4me3-biotin labeled peptide and 6 μM alpha-ketoglutaric acid with 2 μl of 11-point serial diluted inhibitor in 3% DMSO was added to each well of the plate, followed by the addition of 2 μl of 2.4 nM Jarid1B to initiate the reaction. The reaction mixture was incubated at room temperature for 30 minutes, and terminated by the addition of 6 μl of 5 mM EDTA in LANCE detection buffer containing 50 nM Phycolink Streptavidin-allophycocyanin and 2 nM Europium-anti-H3K4me1-2 antibody. Plates were read by EnVisionMultilabel Reader in TR-FRET mode (excitation at 320 nm, emission at 615 nm and 665 nm) after 1 hour incubation at room temperature. A ratio was calculated (665/615) for each well and fitted to determine inhibition constant (IC50).

FBXL10 = FBXL10 (Homo sapiens (Human), UniProt Q8NHM5); assay: FBXL10 in vitro enzyme inhibition assay (AlphaScreen)
Chain of FBXL10 (Q8NHM5 1-650): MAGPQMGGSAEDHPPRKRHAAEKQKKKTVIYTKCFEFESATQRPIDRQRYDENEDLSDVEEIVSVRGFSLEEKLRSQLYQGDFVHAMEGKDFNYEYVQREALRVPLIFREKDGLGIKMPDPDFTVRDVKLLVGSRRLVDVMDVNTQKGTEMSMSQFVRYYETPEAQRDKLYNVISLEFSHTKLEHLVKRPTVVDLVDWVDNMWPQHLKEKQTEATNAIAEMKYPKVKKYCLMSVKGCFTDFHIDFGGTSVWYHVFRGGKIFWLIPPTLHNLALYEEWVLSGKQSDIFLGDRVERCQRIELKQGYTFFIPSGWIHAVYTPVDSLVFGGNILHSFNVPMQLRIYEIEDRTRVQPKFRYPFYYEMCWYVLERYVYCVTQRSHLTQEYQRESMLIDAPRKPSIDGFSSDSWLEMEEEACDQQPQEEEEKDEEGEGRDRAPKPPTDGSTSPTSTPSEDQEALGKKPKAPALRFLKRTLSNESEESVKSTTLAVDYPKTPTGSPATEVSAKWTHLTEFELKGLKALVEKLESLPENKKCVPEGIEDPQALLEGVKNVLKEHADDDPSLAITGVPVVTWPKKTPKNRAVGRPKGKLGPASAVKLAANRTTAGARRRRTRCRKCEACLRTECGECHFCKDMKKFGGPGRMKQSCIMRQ
Description: Reaction product was determined quantitatively by AlphaScreen detection after the addition of detection reagents anti-H3K36me1 antibody, AlphaScreen® Streptavidin-coated Donor beads, and AlphaScreen® Protein A Acceptor beads in 50 mM HEPES, pH7.3, 10 mM NaCl, 0.005% Brij35, 5 mM EDTA, 2 mg/ml BSA to final 10 μg/ml beads.
Plates were incubated at room temperature for 40 minutes, followed by addition of 3 μl of 50 μg/ml AlphaScreen® Streptavidin-coated Donor beads and AlphaScreen® Protein A Acceptor beads in 50 mM HEPES, pH7.3, 10 mM NaCl, 0.005% Brij35, 5 mM EDTA, 2 mg/ml BSA. Plates were read by EnVisionMultilabel Reader in AlphaScreen mode after a minimum of 2 hour or up to overnight incubation at room temperature. The AlphaScreen signal for each well was used to determine inhibition constant (IC50).

Chain of Jarid1A (P29375 1-1090): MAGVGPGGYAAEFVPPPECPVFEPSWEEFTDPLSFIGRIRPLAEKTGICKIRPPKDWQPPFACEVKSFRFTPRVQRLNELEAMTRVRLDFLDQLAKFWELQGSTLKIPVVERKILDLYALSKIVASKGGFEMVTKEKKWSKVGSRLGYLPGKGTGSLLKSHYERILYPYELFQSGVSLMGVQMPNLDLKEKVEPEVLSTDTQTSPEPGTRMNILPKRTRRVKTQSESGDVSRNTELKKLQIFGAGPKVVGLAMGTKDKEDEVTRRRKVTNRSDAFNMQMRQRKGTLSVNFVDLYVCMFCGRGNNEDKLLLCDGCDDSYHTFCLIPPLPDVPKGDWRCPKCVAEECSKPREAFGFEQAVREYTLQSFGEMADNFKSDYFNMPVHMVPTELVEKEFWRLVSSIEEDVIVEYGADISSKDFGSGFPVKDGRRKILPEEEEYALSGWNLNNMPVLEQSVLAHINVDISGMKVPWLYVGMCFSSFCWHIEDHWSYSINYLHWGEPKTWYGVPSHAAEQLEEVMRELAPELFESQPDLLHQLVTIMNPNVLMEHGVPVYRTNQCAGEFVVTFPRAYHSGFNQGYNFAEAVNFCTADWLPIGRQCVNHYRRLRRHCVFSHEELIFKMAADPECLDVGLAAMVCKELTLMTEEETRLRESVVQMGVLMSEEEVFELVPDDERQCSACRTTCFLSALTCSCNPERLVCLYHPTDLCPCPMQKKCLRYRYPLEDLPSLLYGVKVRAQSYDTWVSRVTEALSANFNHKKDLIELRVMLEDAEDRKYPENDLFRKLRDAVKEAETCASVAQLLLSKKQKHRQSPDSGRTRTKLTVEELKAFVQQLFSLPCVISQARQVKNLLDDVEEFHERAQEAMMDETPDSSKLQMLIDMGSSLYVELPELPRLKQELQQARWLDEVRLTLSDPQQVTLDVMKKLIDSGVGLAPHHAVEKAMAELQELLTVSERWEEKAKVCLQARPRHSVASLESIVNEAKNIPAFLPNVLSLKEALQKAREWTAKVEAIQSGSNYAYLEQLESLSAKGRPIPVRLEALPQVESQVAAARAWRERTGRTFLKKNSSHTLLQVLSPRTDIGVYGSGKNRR
Chain of JMJD2C (Q9H3R0 2-372): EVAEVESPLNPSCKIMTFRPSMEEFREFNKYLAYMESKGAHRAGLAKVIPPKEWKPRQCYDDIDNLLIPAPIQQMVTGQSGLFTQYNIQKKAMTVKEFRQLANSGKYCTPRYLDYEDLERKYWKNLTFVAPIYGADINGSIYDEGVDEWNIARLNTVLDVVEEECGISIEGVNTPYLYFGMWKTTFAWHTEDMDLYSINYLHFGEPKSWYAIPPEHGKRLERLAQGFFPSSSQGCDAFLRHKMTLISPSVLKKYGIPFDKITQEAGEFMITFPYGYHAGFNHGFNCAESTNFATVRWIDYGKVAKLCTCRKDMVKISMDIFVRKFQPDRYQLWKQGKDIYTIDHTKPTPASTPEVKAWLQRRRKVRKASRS

Row | IC50 (JMJD2C) | IC50 (Jarid1A) | IC50 (Jarid1B) | IC50 (FBXL10) | SMILES
1 | 100 to 1000 nM | < 100 nM | < 100 nM |  | CCc1cc(F)ccc1COc1ccnn1-c1cc(C(=O)O)ccn1 [Example 129, 2-[5-[(2-ethyl-4-fluorophenyl)methoxy]pyrazol-1-yl]pyridine-4-carboxylic acid]
2 | 100 to 1000 nM | < 100 nM | < 100 nM |  | Cc1ccc(COc2ccnn2-c2cc(C(=O)O)ccn2)c(F)c1 [Example 131, 2-[5-[(2-fluoro-4-methylphenyl)methoxy]pyrazol-1-yl]pyridine-4-carboxylic acid]
3 | 100 to 1000 nM | < 100 nM | < 100 nM |  | Cc1ccc(COc2ccnn2-c2cc(C(=O)O)ccn2)c(C#N)c1 [Example 134, 2-[5-[(2-cyano-4-methylphenyl)methoxy]pyrazol-1-yl]pyridine-4-carboxylic acid]
4 | 1000 to 10000 nM | 100 to 1000 nM | 100 to 1000 nM |  | CCc1cc(C)ccc1COc1ccnn1-c1cc(C(=O)O)ccn1 [Example 135, 2-[5-[(2-ethyl-4-methylphenyl)methoxy]pyrazol-1-yl]pyridine-4-carboxylic acid]
5 | 1000 to 10000 nM | 100 to 1000 nM | 100 to 1000 nM |  | CC(Oc1cc(Cl)ccc1COc1ccnn1-c1cc(C(=O)O)ccn1)c1ccccc1 (centres unmarked) [Example 136, 2-[5-[[4-chloro-2-(1-phenylethoxy)phenyl]methoxy]pyrazol-1-yl]pyridine-4-carboxylic acid]
6 | 1000 to 10000 nM | 100 to 1000 nM | 100 to 1000 nM |  | CC(Oc1cc(F)ccc1COc1ccnn1-c1cc(C(=O)O)ccn1)c1ccccc1 (centres unmarked) [Example 137, 2-[5-[[4-fluoro-2-(1-phenylethoxy)phenyl]methoxy]pyrazol-1-yl]pyridine-4-carboxylic acid]
7 | 100 to 1000 nM | < 100 nM | < 100 nM |  | O=C(O)c1ccnc(-n2nccc2OCc2ccc(Cl)c(OCc3ccc(F)cc3)c2)c1 [Example 138, 2-[5-[[4-chloro-3-[(4-fluorophenyl)methoxy]phenyl]methoxy]pyrazol-1-yl]pyridine-4-carboxylic acid]
8 | 100 to 1000 nM | < 100 nM | < 100 nM |  | O=C(O)c1ccnc(-n2nccc2OCc2ccc(Cl)c(OCC(F)(F)F)c2)c1 [Example 141, 2-[5-[[4-chloro-3-(2,2,2-trifluoroethoxy)phenyl]methoxy]pyrazol-1-yl]pyridine-4-carboxylic acid]
9 | 100 to 1000 nM | 100 to 1000 nM | 100 to 1000 nM |  | Cc1cc(Br)ccc1COc1ccnn1-c1cc(C(=O)O)ccn1 [Example 142, 2-[5-[(4-bromo-2-methylphenyl)methoxy]pyrazol-1-yl]pyridine-4-carboxylic acid]
10 | 100 to 1000 nM | < 100 nM | < 100 nM |  | COc1cc(Br)ccc1COc1ccnn1-c1cc(C(=O)O)ccn1 [Example 143, 2-[5-[(4-bromo-2-methoxyphenyl)methoxy]pyrazol-1-yl]pyridine-4-carboxylic acid]
11 | 100 to 1000 nM | < 100 nM | < 100 nM |  | Cc1cc(I)ccc1COc1ccnn1-c1cc(C(=O)O)ccn1 [Example 144, 2-[5-[(4-iodo-2-methylphenyl)methoxy]pyrazol-1-yl]pyridine-4-carboxylic acid]
12 | 100 to 1000 nM | < 100 nM | < 100 nM |  | COc1cc(I)ccc1COc1ccnn1-c1cc(C(=O)O)ccn1 [Example 145, 2-[5-[(4-iodo-2-methoxyphenyl)methoxy]pyrazol-1-yl]pyridine-4-carboxylic acid]
13 | 100 to 1000 nM | 100 to 1000 nM | 100 to 1000 nM |  | O=C(O)c1ccnc(-n2nccc2OC2CCc3cc(F)ccc32)c1 (centres unmarked) [Example 146, 2-[5-[(5-fluoro-2,3-dihydro-1H-inden-1-yl)oxy]pyrazol-1-yl]pyridine-4-carboxylic acid]
14 | 1000 to 10000 nM | 100 to 1000 nM | 100 to 1000 nM |  | O=C(O)c1ccnc(-n2nccc2OC2CCc3cc(Cl)ccc32)c1 (centres unmarked) [Example 147, 2-[5-[(5-chloro-2,3-dihydro-1H-inden-1-yl)oxy]pyrazol-1-yl]pyridine-4-carboxylic acid]
15 | 1000 to 10000 nM | 100 to 1000 nM | 100 to 1000 nM |  | O=C(O)c1ccnc(-n2nccc2OC2CCCc3cc(F)ccc32)c1 (centres unmarked) [Example 148, 2-[5-[(6-fluoro-1,2,3,4-tetrahydronaphthalen-1-yl)oxy]pyrazol-1-yl]pyridine-4-carboxylic acid]
16 | 1000 to 10000 nM | 100 to 1000 nM | < 100 nM |  | O=C(O)c1ccnc(-n2nccc2OC2CCCc3cc(Cl)ccc32)c1 (centres unmarked) [Example 149, 2-[5-[(6-chloro-1,2,3,4-tetrahydronaphthalen-1-yl)oxy]pyrazol-1-yl]pyridine-4-carboxylic acid]
17 | 1000 to 10000 nM | 100 to 1000 nM | 100 to 1000 nM |  | CCc1ccc(COc2ccnn2-c2cc(C(=O)O)ccn2)c(Cl)c1 [Example 150, 2-[5-[(2-chloro-4-ethylphenyl)methoxy]pyrazol-1-yl]pyridine-4-carboxylic acid]

Row | IC50 (JMJD2C) | IC50 (Jarid1A) | IC50 (Jarid1B) | IC50 (FBXL10) | SMILES
18 | 1000 to 10000 nM | 100 to 1000 nM | < 100 nM |  | CCc1ccc(COc2ccnn2-c2cc(C(=O)O)ccn2)c(F)c1 [Example 151, 2-[5-[(4-ethyl-2-fluorophenyl)methoxy]pyrazol-1-yl]pyridine-4-carboxylic acid]
19 | 1000 to 10000 nM | 100 to 1000 nM | 100 to 1000 nM |  | O=C(O)c1ccnc(-n2nccc2OCc2ccc(C3CC3)cc2Cl)c1 [Example 152, 2-[5-[(2-chloro-4-cyclopropylphenyl)methoxy]pyrazol-1-yl]pyridine-4-carboxylic acid]
20 | 1000 to 10000 nM | 100 to 1000 nM | 100 to 1000 nM |  | O=C(O)c1ccnc(-n2nccc2OCc2ccc(C3CC3)cc2F)c1 [Example 153, 2-[5-[(4-cyclopropyl-2-fluorophenyl)methoxy]pyrazol-1-yl]pyridine-4-carboxylic acid]
21 | 1000 to 10000 nM | 100 to 1000 nM | 100 to 1000 nM |  | O=C(O)c1ccnc(-n2nccc2OCc2ccc(C3CC3)c(Cl)c2)c1 [Example 154, 2-[5-[(3-chloro-4-cyclopropylphenyl)methoxy]pyrazol-1-yl]pyridine-4-carboxylic acid]
22 | 1000 to 10000 nM | 100 to 1000 nM | < 100 nM |  | O=C(O)c1ccnc(-n2nccc2OCc2ccc(C3CC3)c(F)c2)c1 [Example 155, 2-[5-[(4-cyclopropyl-3-fluorophenyl)methoxy]pyrazol-1-yl]pyridine-4-carboxylic acid]
23 | < 100 nM | < 100 nM | < 100 nM |  | CN(CCc1cnn(-c2cc(C(=O)NC#N)ccn2)c1)Cc1ccc(F)cc1 [Example 157, N-cyano-2-[4-[2-[(4-fluorophenyl)methyl-methylamino]ethyl]pyrazol-1-yl]pyridine-4-carboxamide]
24 | 1000 to 10000 nM |  |  | < 100 nM | O=C(O)c1ccnc(-n2nc(Cc3c(F)cccc3F)cc2O)c1 [Example 161, 2-[3-[(2,6-difluorophenyl)methyl]-5-hydroxypyrazol-1-yl]pyridine-4-carboxylic acid]
25 | 1000 to 10000 nM |  |  | < 100 nM | CC(c1ccccc1)c1cc(O)n(-c2cc(-c3nnn[nH]3)ccn2)n1 (centres unmarked) [Example 166, 5-(1-phenylethyl)-2-[4-(1H-tetrazol-5-yl)pyridin-2-yl]pyrazol-3-ol]
26 | 1000 to 10000 nM |  |  | < 100 nM | Oc1cc(Cc2ccccc2Cl)nn1-c1cc(-c2nnn[nH]2)ccn1 [Example 167, 5-[(2-chlorophenyl)methyl]-2-[4-(1H-tetrazol-5-yl)pyridin-2-yl]pyrazol-3-ol]
27 | 1000 to 10000 nM |  |  | < 100 nM | Oc1cc(Cc2cccc(Cl)c2)nn1-c1cc(-c2nnn[nH]2)ccn1 [Example 168, 5-[(3-chlorophenyl)methyl]-2-[4-(1H-tetrazol-5-yl)pyridin-2-yl]pyrazol-3-ol]
28 | 1000 to 10000 nM |  |  | < 100 nM | CC(C)(c1ccc(Cl)cc1)c1cc(O)n(-c2cc(C(=O)O)ccn2)n1 [Example 170, 2-[3-[2-(4-chlorophenyl)propan-2-yl]-5-hydroxypyrazol-1-yl]pyridine-4-carboxylic acid]
29 | 1000 to 10000 nM |  |  | < 100 nM | O=C(O)c1ccnc(-n2nc(C3(c4ccc(Cl)cc4)CC3)cc2O)c1 [Example 171, 2-[3-[1-(4-chlorophenyl)cyclopropyl]-5-hydroxypyrazol-1-yl]pyridine-4-carboxylic acid]
30 | 1000 to 10000 nM |  |  | 100 to 1000 nM | O=C(O)c1ccnc(-n2nc(Cc3cc(Cl)cc(Cl)c3)cc2O)c1 [Example 172, 2-[3-[(3,5-dichlorophenyl)methyl]-5-hydroxypyrazol-1-yl]pyridine-4-carboxylic acid]
31 | 1000 to 10000 nM |  |  | < 100 nM | Cc1cc(F)ccc1Cc1cc(O)n(-c2cc(C(=O)O)ccn2)n1 [Example 173, 2-[3-[(4-fluoro-2-methylphenyl)methyl]-5-hydroxypyrazol-1-yl]pyridine-4-carboxylic acid]
32 | 1000 to 10000 nM |  |  | < 100 nM | Cc1ccc(Cc2cc(O)n(-c3cc(C(=O)O)ccn3)n2)c(F)c1 [Example 174, 2-[3-[(2-fluoro-4-methylphenyl)methyl]-5-hydroxypyrazol-1-yl]pyridine-4-carboxylic acid]
33 | 1000 to 10000 nM |  |  | < 100 nM | O=C(O)c1ccnc(-n2nc(Cc3ccc(F)cc3F)cc2O)c1 [Example 175, 2-[3-[(2,4-difluorophenyl)methyl]-5-hydroxypyrazol-1-yl]pyridine-4-carboxylic acid]
